From PubChem BioAssay AID1996
Converted amounts (≈) assume the structure as drawn.

Settings: buffer; pH 7.4; 200.0 µM

| SMILES | solubility kinetic [µg/mL] |
| --- | --- |
| CCOP(=O)(OCC)/C(=N/OC(=O)c1cccc([N+](=O)[O-])c1)C(N)=O | 55 (≈ 147 µM) |
| O=C(CN1C(=O)NC(c2ccccc2)(c2ccccc2)C1=O)Nc1ccc(N2CCOCC2)cc1 | 2.6 (≈ 5.53 µM) |
| Cc1sc(N)nc1-c1c(C)n(C)c2ccccc12 | 37.6 (≈ 146 µM) |
| O=C(NC(=S)N1CCCCC1)c1csc([N+](=O)[O-])c1 | > 44.9 |
| O=C(c1cccc([N+](=O)[O-])c1)N1CCCC(C(=O)N2CCCCC2)C1 (stereo not given) | > 51.8 |
| CCC(CC)C(=O)N1CC(=O)Nc2ccc(F)cc2C1c1ccccc1 (stereo not given) | 51.9 (≈ 146 µM) |
| Cc1cc(NC(=O)CSc2nnc(C)o2)no1 | > 38.1 |
| O=Cc1ccnc(-c2ccc(OC(=O)c3ccco3)cc2)n1 | 33.1 (≈ 113 µM) |
| CC1(C)CN=C(N(C(=O)Nc2ccccc2)c2ccccc2F)S1 | 8.3 (≈ 24.2 µM) |
| CCOC(=O)Cn1c(=O)c(C#N)cn(C(C)C)c1=O | > 39.8 |
| CN(C)c1ncc(S(=O)(=O)c2ccccc2)c(=O)[nH]1 | > 41.9 |
| CCN(CC)c1ccc(Nc2nc(Cl)ncc2Br)cc1 | 12.8 (≈ 36 µM) |
| CC(C)(O)C#Cc1ccc(C(=O)NC2CCCCC2)s1 | > 43.7 |
| Cn1cccc1C(=O)NCCc1ccc(Cl)cc1 | 36.1 (≈ 137 µM) |
| CCCCCCc1ccc(OC(=O)c2ccncc2)cc1 | 0.7 (≈ 2.47 µM) |
| CN1CCN(CCCNC(=O)CN2C(=O)COc3ccccc32)CC1 | 37.6 (≈ 109 µM) |
| Cc1cccc(NS(=O)(=O)c2ccc3[nH]c(=O)cc(C(=O)O)c3c2)c1 | 48.2 (≈ 134 µM) |
| COP(=O)(Cc1ccc(C#N)o1)OC | > 32.3 |
| O=C1CC(c2ccccc2)CC(=O)N1c1ccccc1 | 11.3 (≈ 42.6 µM) |
| Fc1cc(Cl)ccc1NC(=S)NCCN1CCOCC1 | > 47.7 |
| Cc1ccc[n+](C(C)C(=O)c2ccc(Cl)cc2)c1.[Br-] (stereo not given) | 44.9 |
| Cc1ccc(NC(=O)CN(CCc2ccccc2)S(C)(=O)=O)cc1 | 51.6 (≈ 149 µM) |
| Cc1cc(NC(=O)c2ccc(NC(=O)C3CC3)cc2)no1 | 8.8 (≈ 30.8 µM) |
| Cc1cccc(C(=O)NCc2ccco2)c1 | > 32.3 |

| SMILES | solubility kinetic [µg/mL] |
| --- | --- |
| COCC(=O)Nc1ccc2c(c1)OCO2 | 27.7 (≈ 132 µM) |
| Cn1cc(S(=O)(=O)N2CCCC(C(=O)O)C2)cn1 (stereo not given) | > 41 |
| CC(C)c1cc(CN2CCOCC2)cc(C(C)C)c1O | > 41.6 |
| CSc1ccccc1C(=O)NCc1cccnc1 | > 38.8 |
| COc1ccc2oc(C(=O)OCC(=O)N3C(C)CCCC3C)c(C)c2c1 (stereo not given) | 31.9 (≈ 88.8 µM) |
| COc1ccc(N2C(=O)CC(SCc3ccc(Cl)cc3)C2=O)cc1 (stereo not given) | 0.9 (≈ 2.49 µM) |
| O=C(COc1ccccc1[N+](=O)[O-])Nc1cccnc1 | 17.3 (≈ 63.3 µM) |
| CC1CCN(C(=O)CN2C(=O)C(=O)N(C)C2=O)c2ccccc2S1 (stereo not given) | > 52.1 |
| CC(C)c1ccc(S(=O)(=O)NC2CCCC2)cc1 | > 40.1 |
| Cc1ccccc1CC(=O)NC1CCCc2ccccc21 (stereo not given) | 2.7 (≈ 9.66 µM) |
| Cl.N=c1ccccn1Cc1ccccc1 | > 33.1 |
| COc1cc2c(cc1OC)CN(C(=O)c1sccc1C)CC2 | 45.8 (≈ 144 µM) |
| O=C(O)CCC(=O)NCc1c(Cl)cccc1Sc1ccc(Cl)cc1 | 38.3 (≈ 99.7 µM) |
| CCn1c(SCc2ccc(F)cc2)nc2c(c1=O)SCC2 | 0.9 (≈ 2.79 µM) |
| CC(C)(C)NC(=O)NC(=O)COC(=O)CNC(=O)C1CCCCC1 | 40.9 (≈ 120 µM) |
| C/C(Cl)=C/Cc1c(C)[nH]c2c(ccc3ccccc32)c1=O | < 0.6 |
| CCOc1ccc2nc(N(CCN(C)C)C(=O)/C=C/c3cccs3)sc2c1.Cl | < 0.3 |
| C=CCC1(Cl)C(=O)C(Cl)=C(N2CCN(C)CC2)C1(OC)OC (stereo not given) | > 52.4 |
| Cc1csc(SCC(=O)Nc2ccccc2)n1 | 35.5 (≈ 134 µM) |
| O=C(COC(=O)c1cc(=O)[nH]c2ccccc12)NCc1ccccc1Cl | 4.1 (≈ 11.1 µM) |
| COc1ccc(NC(=O)c2ccc3c(c2)OCO3)cc1S(=O)(=O)N1CCOCC1 | 14.7 (≈ 35 µM) |
| N/C(=N\OC(=O)c1ccc(F)cc1)c1cccc([N+](=O)[O-])c1 | 2.3 (≈ 7.58 µM) |
| Cc1ccccc1C(=O)Nc1ccccc1C(=O)NC1CC1 | > 44.2 |
| CCN1C(=O)N(CC)c2cccc3cccc1c23 | 1.6 (≈ 6.66 µM) |

| SMILES | solubility kinetic [µg/mL] |
| --- | --- |
| Cc1csc(NC(=O)c2cc(C)on2)n1 | > 33.5 |
| COc1ccc(NS(=O)(=O)c2ccc3[nH]c(=O)[nH]c3c2)cc1 | 12.7 (≈ 39.8 µM) |
| Cc1ccc(C(=O)N2C(=O)c3cccc(N)c3C2=O)o1 | 3.9 (≈ 14.4 µM) |
| COc1cccc(Oc2ncnc(N)c2[N+](=O)[O-])c1 | 31 (≈ 118 µM) |
| O=C1NC2=C(C(=O)CCC2)C(c2ccccc2)N1 (stereo not given) | > 36.3 |
| CN(Cc1ccccc1)S(=O)(=O)c1ccc(Cl)c(C(=O)OCC(=O)NC2CCS(=O)(=O)C2)c1 (stereo not given) | 18 (≈ 35 µM) |
| CC1CCc2c(sc3ncnc(SCC(=O)N(C)C4CCS(=O)(=O)C4)c23)C1 (stereo not given) | 3.3 (≈ 7.75 µM) |
| c1ccc(C2CCC(N3CCN(c4ccccc4)CC3)CC2)cc1 (stereo not given) | 1.3 (≈ 4.06 µM) |
| CCC(=O)NC1(C(F)(F)F)C(=O)Nc2c1c(=O)[nH]c(=O)n2CC(C)C (stereo not given) | 54 (≈ 149 µM) |
| Cc1ccc(OCC(=O)N(Cc2ccccc2)c2ccccn2)cc1 | 49.6 (≈ 149 µM) |
| COc1ccc(/C(N)=N/O)c(OC)c1 | > 29.4 |
| O=C(NC1CCCCC1)c1ccc(N2CCOCC2)c([N+](=O)[O-])c1 | > 50 |
| O=[N+]([O-])c1ccc(Cl)c(NC2=NCCCCC2)c1 | > 40.2 |
| COc1ccc(NC(=O)CN2C(=O)NC3(CCCCC3C)C2=O)cc1S(=O)(=O)N1CCOCC1 (stereo not given) | > 74.2 |
| COC(=O)CC1C(=O)NC2CCCCC2N1C(=O)CCl (stereo not given) | > 45.4 |
| O=C(/C=C/c1ccc(Cl)cc1)NCCCn1ccnc1 | > 43.5 |
| COc1ccc(OC)c([C@@H](O)[C@H](C)NC(C)(C)C)c1.Cl | > 45.6 |
| CN(c1ccccc1)S(=O)(=O)c1cccc(C(=O)NCC(=O)Nc2ccc(F)c(F)c2F)c1 | 5.3 (≈ 11.1 µM) |
| Cc1cccc(C(=O)OCC(=O)NCCN2C(=O)CSC2=O)c1[N+](=O)[O-] | > 57.2 |
| N#CCCN(Cc1cccs1)C(=O)c1ccc(Cl)cc1 | > 45.7 |
| O=c1[nH]cc(N(CCO)CCO)c(=O)[nH]1 | > 32.3 |
| Cn1cc(C(=O)N2CCOCC2)c2ccccc21 | > 36.6 |
| CCCCC(CC)C(=O)N1CCN(C(=O)c2ccco2)CC1 (stereo not given) | 45.4 (≈ 148 µM) |
| CCn1c(CNC(=O)C2CCCCC2)cc2cc(C)ccc21 | < 0.3 |

| SMILES | solubility kinetic [µg/mL] |
| --- | --- |
| Cc1ccc(C)n1-c1ccc(C(=O)NCc2cccnc2)cc1 | > 45.8 |
| O=C(O)C1CCC(=O)N(C2CCCCC2)C1c1ccccc1Cl (stereo not given) | > 50.4 |
| Cc1cccc(NC(=O)c2ccc(OCc3c(C)noc3C)cc2)c1C | 3.4 (≈ 9.7 µM) |
| c1ccc(C(NCCNC(c2ccccc2)c2ccccc2)c2ccccc2)cc1 | 1.7 (≈ 4.33 µM) |
| O=C(Nc1cccc(Cl)c1)N1C[C@H]2C[C@@H](C1)c1cccc(=O)n1C2 | > 51.6 |
| Cl.NS(=O)(=O)c1ccc(CCNCc2cccnc2)cc1 | 40.5 |
| Brc1cc(Br)c2nc3c(cc2c1)CCC3 | 1.9 (≈ 5.81 µM) |
| COCCn1c(/C=C/c2ccccc2)nc2ccccc21 | > 41.8 |
| COc1ccc(C(CC(=O)N2CCCCC2)C(C)C)cc1 (stereo not given) | > 43.4 |
| Cc1ccc2cc([N+](=O)[O-])ccc2n1 | 20.5 (≈ 109 µM) |
| Cc1ccc(-c2[nH]c(=S)[nH]c(=O)c2C#N)cc1 | 30.8 (≈ 127 µM) |
| CCOc1ccccc1NC(=O)c1ccc([N+](=O)[O-])cc1 | 2.7 (≈ 9.43 µM) |
| CCc1nc2ccccc2n1CC(=O)Nc1cc(C)on1 | > 42.6 |
| Cc1nc2ccc(NC(=O)CCC3CCCC3)cc2s1 | 8.9 (≈ 30.9 µM) |
| COc1ccc(CCNC(=O)Cc2ccsc2)cc1 | > 41.3 |
| Oc1ccccc1C(=S)N1CCCC1 | > 31.1 |
| CC(C)(C)C1CCC(C(=O)Nc2cccnc2)CC1 (stereo not given) | 6.3 (≈ 24.2 µM) |
| O=C(CSc1ncccn1)NCC1CCCO1 (stereo not given) | > 38 |
| Nc1nc(C23CC4CC(CC(C4)C2)C3)[nH]c(=O)n1 | > 36.9 |
| CCCCc1ccc(NC(=O)N[C@@H](C)C(=O)O)cc1 | > 39.6 |
| COc1ccc(NC(=O)CNC(=O)c2cccs2)cc1Cl | 2.7 (≈ 8.31 µM) |
| C=CCn1c(O)c(C(C)=Nc2cccc(C(F)(F)F)c2)c(=O)[nH]c1=O | 4 (≈ 11.3 µM) |
| CCOc1ccc(NC(=O)C(=O)NCc2ccncc2)cc1 | 12.5 (≈ 41.8 µM) |
| Cc1c(C(=O)N2CCNCC2)oc2ccccc12.Cl | 40.9 |

| SMILES | solubility kinetic [µg/mL] |
| --- | --- |
| COc1ccc(N2CCN(CC(=O)NC(=O)NC(C)(C)C)CC2)cc1 | 51.3 (≈ 147 µM) |
| CC(C(=O)Nc1ccc(Cl)cc1)N1C(=O)NC2(CCCC2)C1=O (stereo not given) | 25.8 (≈ 76.8 µM) |
| Cc1cccc(OCC(=O)Nc2ccncc2)c1C | 37.8 (≈ 147 µM) |
| Cc1ccc(C(=O)c2cc(Br)ccc2N)cc1 | 2.9 (≈ 9.99 µM) |
| COc1ccc(NC(=O)Nc2cnccn2)c(OC)c1 | 3.4 (≈ 12.4 µM) |
| Nc1ccc(CCn2ccnc2)cc1 | > 28.1 |
| O=C(Cn1cc([N+](=O)[O-])ccc1=O)NC1CCCCC1 | > 41.9 |
| NC(=O)c1ccc(NC(=O)COC(=O)c2cc3ccccc3cc2O)cc1 | 10.1 (≈ 27.7 µM) |
| COC(=O)c1ccccc1NC(=O)c1onc(C)c1Cl | < 0.3 |
| O=C(NCCN1CCOCC1)c1c(Cl)cccc1Cl | 44.9 (≈ 148 µM) |
| COC(=O)c1ccc(NC(=O)c2cc[n+](Cc3ccccc3)cc2)cc1.[Cl-] | 50.7 |
| O=S(=O)(c1ccc2c(c1)CCN2)N1CCOCC1 | > 40.2 |
| Cc1nc(-c2cc(C#N)c(=O)[nH]c2C)cs1 | > 34.7 |
| COc1ccc(CN2CCSCC2)c(C)c1C | 5.7 (≈ 22.7 µM) |
| CN(C(=O)COC(=O)c1cncc(Br)c1)C1CCCCC1 | > 53.3 |
| Cc1nc(NS(=O)(=O)c2cccc([N+](=O)[O-])c2)sc1C(C)(C)C | 5.4 (≈ 15.2 µM) |
| Cc1cc(C(=O)N2CCN(c3ncccn3)CC2)nn1C | > 43 |
| CCc1noc(C)c1C(=O)Nc1nc(-c2ccc(OC)cc2)cs1 | 2.3 (≈ 6.7 µM) |
| CCn1cc(CCC(=O)NCCc2ccccc2)c2ccccc21 | 32.8 (≈ 102 µM) |
| COc1ccc2[nH]c(=O)c(C(=O)O)cc2c1 | > 32.9 |
| CCOC(=O)C1CCN(CC(=O)c2ccc(O)c(C)c2O)CC1 | 46.3 (≈ 144 µM) |
| COCCSc1ccccc1C(=O)Nc1ccccc1C(C)C | 48.9 (≈ 148 µM) |
| Nc1nnc(SCC(=O)c2cccc([N+](=O)[O-])c2)s1 | > 44.4 |
| C=C(C)c1cccc(C(C)(C)NC(=O)N2CCC(C(N)=O)CC2)c1 | > 49.4 |
